Data from article PMC6151435, “Bioactivity In Vitro of Quercetin Glycoside Obtained in Beauveria bassiana Culture and Its Interaction with Liposome Membranes” (Molecules : A Journal of Synthetic Chemistry and Natural …, 2017).
Converted amounts (≈) assume the structure as drawn.

Assays:
[1] = Liposome oxidation assay (AAPH-induced oxidation, DPH-PA probe); assay type: biochemical; conditions: for IC50: 30 min oxidation, 37 °C, pH 7.4, read-out: IC50 AAPH PC (inhibition of AAPH induced oxidation of phosphatidylcholine liposomes)
Protocol: Small unilamellar liposomes (SUV) consisted of phosphatidylcholine (egg-PC) were prepared in accordance with the methodology described by Gabrielska and Oszmiański. The lipids were dissolved in chloroform (100 mg/mL), evaporated to dryness under nitrogen and under vacuum for another 60 min. Subsequently, a phosphate buffer […] of pH 7.4 was added and liposomes were formed by mechanical shaking. Then SUVs were formed using a 20 kHz sonicator for 15 min. During sonication the samples were thermostated at 0–2 °C. In the study, PC liposomes at a concentration of 0.1 mg/mL in phosphate buffer (pH 7.4) were used. Liposomes prepared according to the presented-above procedure were used to determine the antioxidative activity and in fluorometric studies.
Antioxidant activities of Q 7-MeGlu and Q were determined using a fluorometric method described earlier by Strugała et al. with minor modifications. The studies were carried out on PC liposomes, which contained the fluorescent probe DPH-PA. Use was made of the relationship between DPH-PA fluorescence intensity and concentration of free radicals. The probe’s fluorescence decreased with its rising oxidation caused by free radicals, supplied by AAPH. Molecules of this compound underwent thermal decomposition into two free radicals each. The value of relative intensity of DPH-PA fluorescence was adopted as a measure of the degree of lipid membrane oxidation. It was calculated as a ratio of fluorescence intensity after 30 min of oxidation in the presence of antioxidants to the initial value of the intensity. The studied polyphenolic compounds scavenged free radicals and thus caused a lower rate of DPH-PA fluorescence decrease. PC liposomes at a concentration of 0.1 mg/mL in phosphate buffer (pH 7.4) were used, incubated for 0.5 h in darkness with addition of DPH-PA probe at a concentration of 1 µM (stock solutions were prepared in DMF). […] The wavelengths of excitation and emission for the probe were as follows: λex = 355 nm, λem = 430 nm. Oxidation was initiated just before measurement, using AAPH at a concentration of […] (dissolved in water) at 37 °C (control sample), or in the presence of test substances (Q 7-MeGlu and Q). The concentrations of studied compounds fluctuated in the range 3–7 µM for Q 7-MeGlu and 2–5 µM for Q. The measurements were conducted with a Cary Eclipse fluorimeter.

[2] = Solubility in water (literature values); assay type: physicochemical; conditions: from cited values
[3] = ref [12]; cited from earlier work

Compound | IC50 [1] [µM] | antioxidative activity, fold higher than L-(+)-ascorbic acid ([1]; from IC50 values) | antioxidative activity, fold lower than quercetin ([1]; from IC50 values) | solubility, fold lower than rutin [2] | solubility in water [3] [µg/mL]
CO[C@H]1[C@H](O)[C@@H](O)[C@H](Oc2cc(O)c3c(=O)c(O)c(-c4ccc(O)c(O)c4)oc3c2)O[C@@H]1CO [Q 7-MeGlu, quercetin 7-O-β-D-(4″-O-methyl)glucopyranoside] | 5.47 ± 0.47 | ca. 24 fold | ca. 1.2 fold |  | 
O=c1c(O)c(-c2ccc(O)c(O)c2)oc2cc(O)cc(O)c12 [Quercetin, 3,3′,4′,5,7-pentahydroxyflavone] | 4.49 ± 0.24 |  |  | more than 240 fold | 0.512 (≈ 1.69 µM)
